The record followed here is ChEMBL document CHEMBL4622894, “An effective method to produce 7-epitaxol from taxol in HCO3” (Bioorg Med Chem Lett, 2020).

A value given as a limit tells only on which side of the number the result lay.

Test [1] deals with Saccharomyces cerevisiae. Nature of the test: Antifungal activity against Saccharomyces cerevisiae S288C assessed as fungal growth inhibition. It counts as functional, organism-based.
Test [2] relates to Saccharomyces cerevisiae. Nature of the test: Antifungal activity against Saccharomyces cerevisiae AD18 assessed as fungal growth inhibition. It counts as functional, organism-based.

A word on the IC50: it is the concentration that inhibits the measured activity by half. In the case of `CC(=O)O[C@H]1C(=O)[C@]2(C)[C@H](O)C[C@H]3OC[C@@]3(OC(C)=O)[C@H]2[C@H](OC(=O)c2ccccc2)[C@]2(O)C[C@H](OC(=O)[C@H](O)[C@@H](NC(=O)c3ccccc3)c3ccccc3)C(C)=C1C2(C)C`, the half-inhibitory concentration (IC50) in test [1] is above 100 µM; in test [2], 71.5 µM.

In the case of `CC(=O)O[C@H]1C(=O)[C@@]2(C)[C@H]([C@H](OC(=O)c3ccccc3)[C@]3(O)C[C@H](OC(=O)[C@H](O)[C@@H](NC(=O)c4ccccc4)c4ccccc4)C(C)=C1C3(C)C)[C@]1(OC(C)=O)CO[C@@H]1C[C@@H]2O` [PACLITAXEL], the half-maximal inhibitory concentration (IC50) in test [1] and in test [2] was above 100 µM in each case.
